Where two headings read alike, the source gives them in different places.
How the values were obtained:
Mouse [1] = experiment: Novel object recognition (cognition); type: in vivo; set-up: key: a + sign means efficacious; a − sign means not efficacious
Excerpt: (§1) In Table 1, a + sign means efficacious, a − sign means not efficacious, and an empty cell indicates a dose was not tested.

Rat = experiment: Attention set-shifting task (ASST) (executive function); type: in vivo; set-up: key: a + sign means efficacious; a − sign means not efficacious; conditions: for Attention set-shifting task (ASST) (executive function): 14-Day Once Daily (QD); for ASST (executive function): Single Dose
Excerpt: as §1

Mouse [2] = experiment: BALB/C social interaction; type: in vivo; set-up: key: a + sign means efficacious; a − sign means not efficacious; conditions: for BALB/C social interaction (negative symptoms): 14-Day Once Daily (QD); for BALB/C social interaction (acute): Single Dose
Excerpt: as §1

Mouse [3] = experiment: Poly I:C social interaction (acute); type: in vivo; set-up: key: a + sign means efficacious; a − sign means not efficacious; conditions: Single Dose
Excerpt: as §1

Mouse [4] = experiment: Eyeblink conditioning (ataxia and schizophrenia), 10-day QD; type: in vivo; set-up: key: a + sign means efficacious; a − sign means not efficacious; conditions: 10-Day Once Daily (QD)
Excerpt: as §1

mouse hippocampus = experiment: Hippocampal long-term potentiation (LTP) after acute and sub-chronic oral dosing; type: in vivo, mice
Description: In this study, hippocampal synaptic plasticity was evaluated using a well-established long-term potentiation (LTP) paradigm after acute and sub-chronic (14 days) dosing with Compound (I).
Wild-type mice aged 5-6 weeks (total of 97; n=5-8 per condition) were given acute or sub-chronic (14-day) oral doses of Compound (I) (from 0.001 mg/kg to 10 mg/kg, p.o.) or vehicle (1% Tween 80 in 0.5% methylcellulose). Hippocampal slices were harvested after 5 hours. Cerebellum and blood plasma were also obtained to measure D-serine levels achieved in the experimental animals.
Electrophysiological recordings were obtained from a single hippocampal slice placed on the chamber and perfused with aCSF at a constant rate. Extracellular field excitatory postsynaptic potentials (fEPSPs) were recorded in the CA1 stratum radiatum using a glass micropipette filled with aCSF. fEPSPs were evoked by electrical stimulation of Schaffer collaterals/commissural pathway at 0.1 Hz with a glass stimulating electrode placed in the stratum radiatum.
To test the effect of Compound (I) on basal synaptic transmission, Input/Output […] curves were constructed at the beginning of the experiment. The slope of fEPSPs was measured and plotted against different intensities of stimulation (from 0 to 100 μA). Long-term potentiation (LTP) was induced by a theta burst stimulation protocol (10 bursts of 4 pulses at 100 Hz, with 200 ms between bursts) at baseline stimulation intensity. Following this conditioning stimulus, a 1-hour test period was recorded where responses were again elicited by a single stimulation every 10 seconds (0.1 Hz) at the same stimulus intensity.

[5] = test system: patients with schizophrenia; experiment: Phase 1b crossover study: eye-blink conditioning (EBC); type: in vivo, human
Excerpt: NCT03359785 was a randomized, double-blind, placebo-controlled cross-over Phase 1b clinical trial in schizophrenia patients at a single site to evaluate PD effects, safety, tolerability, and pharmacokinetics of multiple oral doses of Compound (I). The objective of the study was to assess pharmacodynamic (PD) biomarkers of Compound (I) on measures related to cerebellar circuitry function and NMDA pharmacology that are known to be affected in schizophrenia.
The primary endpoint was the average percentage of conditioned responses during the eye-blink conditioning (EBC) test at day 8 of each treatment period (FIG. 10). EBC was used to assess the impact of Compound (I) on cerebellar circuitry function. EBC is a highly conserved reflex that is dependent on cerebellar circuitry, with NMDA receptors playing a key role. EBC is impaired in patients with schizophrenia compared with healthy controls.
All endpoints were analyzed as change from baseline compared to placebo within the same subjects. Statistical comparisons were conducted with an ANOVA model, with treatment sequence, period, and treatment as fixed effects, and subject as a random effect. […]

[6] = test system: adult patients with persistent negative symptoms of schizophrenia
Description: Additionally, eligible participants were receiving stable antipsychotic treatment at a 2-6 mg daily dose of risperidone equivalents, and were allowed to be treated with a second antipsychotic if it was used as a hypnotic at a subtherapeutic dose (subject to sponsor approval). […] To overcome potential confounding effects, those with depressive and extrapyramidal symptoms were excluded.
Dose selection for this study was based on target occupancy and elevation of D-serine.
The study comprised a 28-day screening period, a 14-day single-blinded placebo run-in period to prospectively evaluate drug adherence and BNSS score stability, and a 12-week double-blinded treatment period (FIG. 5). […] Demographics, baseline characteristics, and efficacy assessments were based on the full analysis set, which included randomized participants who received at least one dose of the study drug during the treatment period (Table 6). The safety analysis set included randomized participants who received at least one dose of the study drug.
Safety endpoints included assessment of treatment-emergent adverse events (TEAEs).

[7] = 50 mg once daily, count (%) of N = 58
[8] = 125 mg once daily, count (%) of N = 56
[9] = 500 mg once daily, count (%) of N = 55

O=c1[nH]nc(CCc2ccc(C(F)(F)F)cc2)cc1O [Compound (I), luvadaxistat]
Novel object recognition (cognition) (Mouse [1]; 14-Day Once Daily (QD), 0.001 mg/kg): −
Novel object recognition (cognition) (Mouse [1]; 14-Day Once Daily (QD), 0.003 mg/kg): +
Novel object recognition (cognition) (Mouse [1]; 14-Day Once Daily (QD), 0.01 mg/kg): +
Novel object recognition (cognition) (Mouse [1]; 14-Day Once Daily (QD), 0.03 mg/kg): +
Novel object recognition (cognition) (Mouse [1]; 14-Day Once Daily (QD), 0.1 mg/kg): +
Novel object recognition (cognition) (Mouse [1]; 14-Day Once Daily (QD), 0.3 mg/kg): −
Novel object recognition (cognition) (Mouse [1]; 14-Day Once Daily (QD), 1 mg/kg): −
Novel object recognition (cognition) (Mouse [1]; 14-Day Once Daily (QD), 3 mg/kg): −
Novel object recognition (cognition) (Mouse [1]; Single Dose, 0.1 mg/kg): −
Novel object recognition (cognition) (Mouse [1]; Single Dose, 0.3 mg/kg): +
Novel object recognition (cognition) (Mouse [1]; Single Dose, 1 mg/kg): +
Novel object recognition (cognition) (Mouse [1]; Single Dose, 3 mg/kg): +
Novel object recognition (cognition) (Mouse [1]; Single Dose, 10 mg/kg): +
Attention set-shifting task (ASST) (executive function) (Rat; 0.1 mg/kg): +
Attention set-shifting task (ASST) (executive function) (Rat; 1 mg/kg): +
Attention set-shifting task (ASST) (executive function) (Rat; 10 mg/kg): +
ASST (executive function) (Rat; 3 mg/kg): +
ASST (executive function) (Rat; 10 mg/kg): +
ASST (executive function) (Rat; 30 mg/kg): +
BALB/C social interaction (negative symptoms) (Mouse [2]; 0.001 mg/kg): −
BALB/C social interaction (negative symptoms) (Mouse [2]; 0.003 mg/kg): −
BALB/C social interaction (negative symptoms) (Mouse [2]; 0.01 mg/kg): +
BALB/C social interaction (negative symptoms) (Mouse [2]; 0.03 mg/kg): +
BALB/C social interaction (negative symptoms) (Mouse [2]; 0.1 mg/kg): +
BALB/C social interaction (negative symptoms) (Mouse [2]; 0.3 mg/kg): +
BALB/C social interaction (negative symptoms) (Mouse [2]; 1 mg/kg): +
BALB/C social interaction (negative symptoms) (Mouse [2]; 3 mg/kg): +
BALB/C social interaction (acute) (Mouse [2]; 0.3 mg/kg): −
BALB/C social interaction (acute) (Mouse [2]; 1 mg/kg): +
BALB/C social interaction (acute) (Mouse [2]; 3 mg/kg): +
Poly I:C social interaction (acute) (Mouse [3]; 0.3 mg/kg): −
Poly I:C social interaction (acute) (Mouse [3]; 1 mg/kg): −
Poly I:C social interaction (acute) (Mouse [3]; 3 mg/kg): +
Eyeblink conditioning (ataxia and schizophrenia) (Mouse [4]; 0.1 mg/kg): +
Eyeblink conditioning (ataxia and schizophrenia) (Mouse [4]; 1 mg/kg): +
LTP in the mouse hippocampus (mouse hippocampus; single oral doses vs vehicle, one-way ANOVA): did not significantly affect LTP
LTP in the mouse hippocampus (mouse hippocampus; sub-chronic (14-day) oral dose 0.001 mg/kg, p<0.05 vs vehicle): increased LTP
LTP in the mouse hippocampus (mouse hippocampus; sub-chronic (14-day) oral dose 0.01 mg/kg, p<0.05 vs vehicle): increased LTP
LTP in the mouse hippocampus (mouse hippocampus; sub-chronic (14-day) oral dose 0.1 mg/kg, p<0.05 vs vehicle): decreased LTP
LTP in the mouse hippocampus (mouse hippocampus; sub-chronic (14-day) oral dose 10 mg/kg, p<0.05 vs vehicle): decreased LTP
EBC change from baseline, effect size vs placebo (ANCOVA) ([5]; 50 mg for 8 days, p=0.109): 0.246
EBC change from baseline, effect size vs placebo (ANCOVA) ([5]; 500 mg for 8 days, p=0.777): −0.198
Frequent TEAEs: Headache [6, 7]: 0
Frequent TEAEs: Increased weight [6, 7]: 2 (3.4)
Frequent TEAEs: Insomnia [6, 7]: 0
Patients with Mild TEAEs [6, 7]: 10 (17.2)
Patients with Moderate TEAEs [6, 7]: 2 (3.4)
Patients with Severe TEAEs [6, 7]: 1 (1.7)
Patients with any TEAEs [6, 7]: 13 (22.4)
Serious adverse events [6, 7]: 0
TEAEs leading to study discontinuation [6, 7]: 0
TEAEs related to study drug [6, 7]: 0
Deaths ([6]; 50 mg once daily, count of N = 58): 0
Severe event of chronic cholecystitis, number of participants ([6]; 50 mg once daily, not considered drug related): 1
Severe schizophrenia (drug-related serious TEAE), number of participants ([6]; 125 mg once daily): one
Frequent TEAEs: Headache [6, 8]: 5 (8.9)
Frequent TEAEs: Increased weight [6, 8]: 0
Frequent TEAEs: Insomnia [6, 8]: 2 (3.6)
Patients with Mild TEAEs [6, 8]: 13 (23.2)
Patients with Moderate TEAEs [6, 8]: 3 (5.4)
Patients with Severe TEAEs [6, 8]: 1 (1.8)
Patients with any TEAEs [6, 8]: 17 (30.4)
Serious adverse events [6, 8]: 1 (1.8)
TEAEs leading to study discontinuation [6, 8]: 1 (1.8)
TEAEs related to study drug [6, 8]: 4 (7.1)
Deaths ([6]; 125 mg once daily, count of N = 56): 0
Frequent TEAEs: Headache [6, 9]: 2 (3.6)
Frequent TEAEs: Increased weight [6, 9]: 0
Frequent TEAEs: Insomnia [6, 9]: 2 (3.6)
Patients with Mild TEAEs [6, 9]: 8 (14.5)
Patients with Moderate TEAEs [6, 9]: 8 (14.5)
Patients with Severe TEAEs [6, 9]: 0
Patients with any TEAEs [6, 9]: 16 (29.1)
Serious adverse events [6, 9]: 0
TEAEs leading to study discontinuation [6, 9]: 1 (1.8)
TEAEs related to study drug [6, 9]: 7 (12.7)
Deaths ([6]; 500 mg once daily, count of N = 55): 0
